Laboratory results taken from US9365522B2, “Pyrazole amide derivative” (AMGEN INC., priority 2015, dated 2016).

target: T1, human RORγ-LBD (Homo sapiens, UniProt P51449); experiment: ROR gamma coactivator peptide recruitment Alphascreen assay (RORγ-LBD binding to GRIP1 coactivator peptide); type: biochemical; details: 5 nM human RORγ-LBD, 30 nM 7-β-hydroxycholesterol, 50 nM biotinylated GRIP1 coactivator peptide, overnight incubation at room temperature; read-out: result (pIC50, RORγ coactivator peptide recruitment Alphascreen assay) (converted)
T1 construct: made in house; host or cells: E. coli (BL-21)
T1 sequence (P51449 262-518): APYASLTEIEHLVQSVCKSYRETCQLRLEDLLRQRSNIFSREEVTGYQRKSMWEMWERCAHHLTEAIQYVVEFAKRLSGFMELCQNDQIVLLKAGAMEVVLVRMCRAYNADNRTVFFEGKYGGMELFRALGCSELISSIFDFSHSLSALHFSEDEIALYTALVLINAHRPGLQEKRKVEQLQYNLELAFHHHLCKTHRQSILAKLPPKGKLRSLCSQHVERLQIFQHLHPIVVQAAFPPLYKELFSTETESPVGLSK
Outline: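 Alphascreen proximity read-out after overnight room-temperature incubation, yielding pIC50 from 1-in-2 compound series (2.5% DMSO final). Mixture: 50 nM biotin-GRIP1 peptide, 30 nM 7-β-hydroxycholesterol agonist, 5 nM recombinant 6×His:Flag human RORγ-LBD (aa 262-518), 50 mM HEPES pH 7.4.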

Row | Structure (SMILES) | IC50
1 | O=C(CN(CC1(F)CCCC1)C(=O)c1cnn([C@H]2CC[C@@H](C(=O)O)CC2)c1C(F)(F)F)c1c(Cl)cncc1Cl [Example 667, cis-4-(4-((2-(3,5-dichloro-4-pyridinyl)-2-oxoethyl)((1-fluorocyclopentyl)methyl)carbamoyl)-5-(trifluoromethyl)-1H-pyrazol-1-yl)cyclohexanecarboxylic acid] | 302 nM
2 | CC1(C)CC(CN(CC(=O)c2c(Cl)cccc2Cl)C(=O)c2cnn([C@H]3C[C@H](CC(=O)O)C3)c2C(F)(F)F)C1 [Example 668, (trans-3-(4-((2-(2,6-dichlorophenyl)-2-oxoethyl)((3,3-dimethylcyclobutyl)methyl)carbamoyl) 5-(trifluoromethyl)-1H-pyrazol-1-yl)cyclobutyl)acetic acid] | 3.47 nM
3 | CC1(C)CC(CN(CC(=O)c2c(Cl)cccc2Cl)C(=O)c2cnn([C@H]3C[C@@H](CC(=O)O)C3)c2C(F)(F)F)C1 [Example 669, (cis-3-(4-((2-(2,6-dichlorophenyl)-2-oxoethyl)((3,3-dimethylcyclobutyl)methyl)carbamoyl) 5-(trifluoromethyl)-1H-pyrazol-1-yl)cyclobutyl)acetic acid] | 4.07 nM
4 | CC(C)(C)CN(CC(=O)c1c(Cl)cccc1Cl)C(=O)c1cnn([C@H]2CC[C@@H](C(=O)O)CC2)c1C(F)(F)F [Example 670, cis-4-(4-((2-(2,6-dichlorophenyl)-2-oxoethyl)(2,2-dimethylpropyl)carbamoyl)-5-(trifluoromethyl)-1H-pyrazol-1-yl)cyclohexanecarboxylic acid] | 21.9 nM
5 | CC1(CN(CC(=O)c2c(Cl)cc(F)cc2Cl)C(=O)c2cnn([C@H]3CC[C@](C)(C(=O)O)CC3)c2C(F)(F)F)CCCC1 [Example 671, trans-4-(4-((2-(2,6-dichloro-4-fluorophenyl)-2-oxoethyl)((1-methylcyclopentyl)methyl)carbamoyl)-5-(trifluoromethyl)-1H-pyrazol-1-yl)-1-methylcyclohexanecarboxylic acid] | 0.871 nM
6 | CC1(C)CC(CN(CC(=O)c2c(Cl)cccc2Cl)C(=O)c2cnn([C@H]3CC[C@@](C)(C(=O)O)CC3)c2C(F)(F)F)C1 [Example 672, trans-4-(4-((2-(2,6-dichlorophenyl)-2-oxoethyl)((3,3-dimethylcyclobutyl)methyl)carbamoyl)-5-(trifluoromethyl)-1H-pyrazol-1-yl)-1-methylcyclohexanecarboxylic acid] | 2.04 nM
7 | CC1(C)CC[C@@H](CN(CC(=O)c2c(Cl)cncc2Cl)C(=O)c2cnn([C@H]3CC[C@](C)(C(=O)O)CC3)c2C(F)(F)F)O1 [Example 673, trans-4-(4-((2-(3,5-dichloro-4-pyridinyl)-2-oxoethyl)(((2S)-5,5-dimethyltetrahydro-2-furanyl)methyl)carbamoyl)-5-(trifluoromethyl)-1H-pyrazol-1-yl)-1-methylcyclohexanecarboxylic acid] | 36.3 nM
8 | CC1(C)CC[C@H](CN(CC(=O)c2c(Cl)cncc2Cl)C(=O)c2cnn([C@H]3CC[C@](C)(C(=O)O)CC3)c2C(F)(F)F)O1 [Example 674, trans-4-(4-((2-(3,5-dichloro-4-pyridinyl)-2-oxoethyl)(((2S)-5,5-dimethyltetrahydro-2-furanyl)methyl)carbamoyl)-5-(trifluoromethyl)-1H-pyrazol-1-yl)-1-methylcyclohexanecarboxylic acid] | 17.8 nM
9 | CC1(CN(CC(=O)c2c(Cl)cncc2Cl)C(=O)c2cnn([C@H]3CC[C@](C)(C(=O)O)CC3)c2C(F)(F)F)COC1 [Example 675, trans-4-(4-((2-(3,5-dichloro-4-pyridinyl)-2-oxoethyl)((3-methyl-3-oxetanyl)methyl)carbamoyl)-5-(trifluoromethyl)-1H-pyrazol-1-yl)-1-methylcyclohexanecarboxylic acid] | 234 nM
10 | Cc1cc(Cl)c(C(=O)CN(CC2(C)COC2)C(=O)c2cnn([C@H]3CC[C@](C)(C(=O)O)CC3)c2C(F)(F)F)c(Cl)c1 [Example 676, trans-4-(4-((2-(2,6-dichloro-4-methylphenyl)-2-oxoethyl)((3-methyl-3-oxetanyl)methyl)carbamoyl)-5-(trifluoromethyl)-1H-pyrazol-1-yl)-1-methylcyclohexanecarboxylic acid] | 51.3 nM
11 | C[C@]1(C(=O)O)CC[C@H](n2ncc(C(=O)N(CC(=O)c3c(Cl)cncc3Cl)[C@H]3C[C@@H]4CC[C@H]3C4)c2C(F)(F)F)CC1 [Example 677, trans-4-(4-((1S,2R,4R)-bicyclo[2.2.1]hept-2-yl(2-(3,5-dichloro-4-pyridinyl)-2-oxoethyl)carbamoyl)-5-(trifluoromethyl)-1H-pyrazol-1-yl)-1-methylcyclohexanecarboxylic acid] | 5.62 nM
12 | Cc1cc(Cl)c(C(=O)CN(C(=O)c2cnn([C@H]3CC[C@](C)(C(=O)O)CC3)c2C(F)(F)F)[C@H]2C[C@@H]3CC[C@H]2C3)c(Cl)c1 [Example 678, trans-4-(4-((1S,2S,4R)-bicyclo[2.2.1]hept-2-yl(2-(2,6-dichloro-4-methylphenyl)-2-oxoethyl)carbamoyl)-5-(trifluoromethyl)-1H-pyrazol-1-yl)-1-methylcyclohexanecarboxylic acid] | 1.07 nM
13 | CC1(C)CC[C@H](CN(CCc2c(Cl)cncc2Cl)C(=O)c2cnn([C@H]3CC[C@](C)(C(=O)O)CC3)c2C(F)(F)F)O1 [Example 679, trans-4-(4-((2-(3,5-dichloro-4-pyridinyl)ethyl)(((2R)-5,5-dimethyltetrahydro-2-furanyl)methyl)carbamoyl)-5-(trifluoromethyl)-1H-pyrazol-1-yl)-1-methylcyclohexanecarboxylic acid] | 12 nM
14 | CC1(C)CC[C@@H](CN(CCc2c(Cl)cncc2Cl)C(=O)c2cnn([C@H]3CC[C@](C)(C(=O)O)CC3)c2C(F)(F)F)O1 [Example 680, trans-4-(4-((2-(3,5-dichloro-4-pyridinyl)ethyl)(((2S)-5,5-dimethyltetrahydro-2-furanyl)methyl)carbamoyl)-5-(trifluoromethyl)-1H-pyrazol-1-yl)-1-methylcyclohexanecarboxylic acid] | 47.9 nM
15 | C[C@]1(CN(CCc2c(Cl)cncc2Cl)C(=O)c2cnn([C@H]3CC[C@](C)(C(=O)O)CC3)c2C(F)(F)F)CCCO1 [Example 681, trans-4-(4-((2-(3,5-dichloro-4-pyridinyl)ethyl)(((2R)-2-methyltetrahydro-2-furanyl)methyl)carbamoyl)-5-(trifluoromethyl)-1H-pyrazol-1-yl)-1-methylcyclohexanecarboxylic acid] | 9.55 nM
16 | C[C@@]1(CN(CCc2c(Cl)cncc2Cl)C(=O)c2cnn([C@H]3CC[C@](C)(C(=O)O)CC3)c2C(F)(F)F)CCCO1 [Example 682, trans-4-(4-((2-(3,5-dichloro-4-pyridinyl)ethyl)(((2S)-2-methyltetrahydro-2-furanyl)methyl)carbamoyl)-5-(trifluoromethyl)-1H-pyrazol-1-yl)-1-methylcyclohexanecarboxylic acid] | 50.1 nM
17 | C[C@@H]1C[C@H](n2ncc(C(=O)N(CC(=O)c3c(Cl)cccc3Cl)CC3CC(C)(C)C3)c2C(F)(F)F)CC[C@@H]1C(=O)O [Example 683, (1S,2R,4R)-4-(4-((2-(2,6-dichlorophenyl)-2-oxoethyl)((3,3-dimethylcyclobutyl)methyl)carbamoyl)-5-(trifluoromethyl)-1H-pyrazol-1-yl)-2-methylcyclohexanecarboxylic acid] | 8.91 nM
18 | C[C@H]1C[C@@H](n2ncc(C(=O)N(CC(=O)c3c(Cl)cccc3Cl)CC3CC(C)(C)C3)c2C(F)(F)F)CC[C@H]1C(=O)O [Example 684, (1R,2S,4S)-4-(4-((2-(2,6-dichlorophenyl)-2-oxoethyl)((3,3-dimethylcyclobutyl)methyl)carbamoyl)-5-(trifluoromethyl)-1H-pyrazol-1-yl)-2-methylcyclohexanecarboxylic acid] | 13.8 nM
19 | CC1(C)C[C@H](CN(CC(=O)c2c(Cl)cncc2Cl)C(=O)c2cnn([C@H]3CC[C@](C)(C(=O)O)CC3)c2C(F)(F)F)O1 [Example 685, trans-4-(4-((2-(3,5-dichloro-4-pyridinyl)-2-oxoethyl)(((2R)-4,4-dimethyl-2-oxetanyl)methyl)carbamoyl)-5-(trifluoromethyl)-1H-pyrazol-1-yl)-1-methylcyclohexanecarboxylic acid] | 97.7 nM
20 | CC1(C)C[C@@H](CN(CC(=O)c2c(Cl)cncc2Cl)C(=O)c2cnn([C@H]3CC[C@](C)(C(=O)O)CC3)c2C(F)(F)F)O1 [Example 686, trans-4-(4-((2-(3,5-dichloro-4-pyridinyl)-2-oxoethyl)(((2S)-4,4-dimethyl-2-oxetanyl)methyl)carbamoyl)-5-(trifluoromethyl)-1H-pyrazol-1-yl)-1-methylcyclohexanecarboxylic acid] | 91.2 nM
21 | Cc1cc(Cl)c(C(=O)CN(CC(C)(C)C)C(=O)c2cnn([C@H]3CC[C@](C)(C(=O)O)CC3)c2C(F)(F)F)c(Cl)n1 [Example 687, trans-4-(4-((2-(2,4-dichloro-6-methyl-3-pyridinyl)-2-oxoethyl)(2,2-dimethylpropyl)carbamoyl)-5-(trifluoromethyl)-1H-pyrazol-1-yl)-1-methylcyclohexanecarboxylic acid] | 14.8 nM
22 | CC1(C)C[C@H](Cc2c(Cl)cncc2Cl)N(C(=O)c2cnn([C@H]3CC[C@](C)(C(=O)O)CC3)c2C(F)(F)F)C1 [Example 688] | 110 nM
